Experimental data from patent US20240238423A9, “TETRAHYDROISOQUINOLINE HETEROBIFUNCTIONAL BCL-XL DEGRADERS” (Treeline Biosciences, Inc., priority 2022, published 2024).

Target: T1, Human BCL-XL protein (N-terminal HiBiT tagged BCL-XL in HT1080 cells) (Homo sapiens, UniProt Q07817)
T1 construct: expressed in transfected cells; host or cells: HT-1080 (ATCC CCL-121), stably transduced with lentivirus pLV-UBC-N-HiBiT-BCL-XL-PGK-puro and selected with puromycin
Assay: HiBiT based degradation assay
Type: cell-based
Conditions: HT1080 cells expressing HiBiT-BCL-XL, 24 h; for Ymin (24 h): BCL-XL degradation normalized with DMSO control; for DC50: BCL-XL degradation, read-out: EC50 (24 h)
How it was run: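 HT1080 cells stably transduced by lentivirus with N-terminally HiBiT-tagged human BCL-XL and kept under 1 μg/mL puromycin selection were seeded at three thousand cells per well in 40 μL RPMI 1640 into 384-well plates pre-spotted with compounds across a concentration range. Luminescence was read on a PHERAstar FSX, normalized to DMSO, and fitted with a four-parameter logistic model.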

T1 sequence (Q07817 whole entry): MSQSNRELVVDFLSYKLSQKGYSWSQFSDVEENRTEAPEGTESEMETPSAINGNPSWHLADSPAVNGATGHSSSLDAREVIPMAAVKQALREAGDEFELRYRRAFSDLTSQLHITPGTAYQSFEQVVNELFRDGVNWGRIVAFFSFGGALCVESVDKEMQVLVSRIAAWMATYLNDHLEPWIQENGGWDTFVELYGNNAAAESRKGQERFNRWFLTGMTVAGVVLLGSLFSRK

Compound	Ymin (24 h)	DC50
Cn1nc(C2CCC(=O)NC2=O)c2ccc(N3CCN(CCCC[C@H]4CC[C@H](Oc5cccc(-c6ccc(N7CCc8cccc(C(=O)Nc9nc%10ccccc%10s9)c8C7)nc6C(=O)O)c5C(F)(F)F)CC4)CC3)cc21 (stereo partly drawn) [Compound 319a, 6-(8-(benzo[d]thiazol-2-ylcarbamoyl)-3,4-dihydroisoquinolin-2(1H)-yl)-3-(3-(((1s,4r)-4-(4-(4-(3-(2,6-dioxopiperidin-3-yl)-1-methyl-1H-indazol-6-yl)piperazin-1-yl)butyl)cyclohexyl)oxy)-2-(trifluoromethyl)phenyl)picolinic acid]	A (Ymin < 50%)	< 0.1 µM
Cc1c(O[C@H]2CC[C@H](CCCCN3CCN(c4ccc5c(C6CCC(=O)NC6=O)nn(C)c5c4)C(C)(C)C3)CC2)cccc1-c1ccc(N2CCc3cccc(C(=O)Nc4nc5ccccc5s4)c3C2)nc1C(=O)O (stereo partly drawn) [Compound 322a, 6-(8-(benzo[d]thiazol-2-ylcarbamoyl)-3,4-dihydroisoquinolin-2(1H)-yl)-3-(3-(((1s,4r)-4-(4-(4-(3-(2,6-dioxopiperidin-3-yl)-1-methyl-1H-indazol-6-yl)-3,3-dimethylpiperazin-1-yl)butyl)cyclohexyl)oxy)-2-methylphenyl)picolinic acid]	A (Ymin < 50%)	< 0.1 µM
Cc1c(O[C@H]2CC[C@H](CCCCN3CCN(c4ccc5c(C6CCC(=O)NC6=O)nn(C)c5c4)CC3(C)C)CC2)cccc1-c1ccc(N2CCc3cccc(C(=O)Nc4nc5ccccc5s4)c3C2)nc1C(=O)O (stereo partly drawn) [Compound 323a, 6-(8-(benzo[d]thiazol-2-ylcarbamoyl)-3,4-dihydroisoquinolin-2(1H)-yl)-3-(3-(((1s,4r)-4-(4-(4-(3-(2,6-dioxopiperidin-3-yl)-1-methyl-1H-indazol-6-yl)-2,2-dimethylpiperazin-1-yl)butyl)cyclohexyl)oxy)-2-methylphenyl)picolinic acid]	A (Ymin < 50%)	< 0.1 µM
Cc1c(O[C@H]2CC[C@H](CCCCN3CCN(c4ccc5c(C6CCC(=O)NC6=O)nn(C)c5c4C)CC3)CC2)cccc1-c1ccc(N2CCc3cccc(C(=O)Nc4nc5ccccc5s4)c3C2)nc1C(=O)O (stereo partly drawn) [Compound 324a, 6-(8-(benzo[d]thiazol-2-ylcarbamoyl)-3,4-dihydroisoquinolin-2(1H)-yl)-3-(3-(((1s,4r)-4-(4-(4-(3-(2,6-dioxopiperidin-3-yl)-1,7-dimethyl-1H-indazol-6-yl)piperazin-1-yl)butyl)cyclohexyl)oxy)-2-methylphenyl)picolinic acid]	A (Ymin < 50%)	< 0.1 µM
Cc1cc2c(C3CCC(=O)NC3=O)nn(C)c2cc1N1CCN(CCCC[C@H]2CC[C@H](Oc3cccc(-c4ccc(N5CCc6cccc(C(=O)Nc7nc8ccccc8s7)c6C5)nc4C(=O)O)c3C)CC2)CC1 (stereo partly drawn) [Compound 325a, 6-(8-(benzo[d]thiazol-2-ylcarbamoyl)-3,4-dihydroisoquinolin-2(1H)-yl)-3-(3-(((1s,4r)-4-(4-(4-(3-(2,6-dioxopiperidin-3-yl)-1,5-dimethyl-1H-indazol-6-yl)piperazin-1-yl)butyl)cyclohexyl)oxy)-2-methylphenyl)picolinic acid]	A (Ymin < 50%)	< 0.1 µM
Cc1c(O[C@H]2CC[C@H](CCCCN3CCC(Oc4ccc5c(C6CCC(=O)NC6=O)nn(C)c5c4)CC3)CC2)cccc1-c1ccc(N2CCc3cccc(C(=O)Nc4nc5ccccc5s4)c3C2)nc1C(=O)O (stereo partly drawn) [Compound 326a, 6-(8-(benzo[d]thiazol-2-ylcarbamoyl)-3,4-dihydroisoquinolin-2(1H)-yl)-3-(3-(((1s,4r)-4-(4-(4-((3-(2,6-dioxopiperidin-3-yl)-1-methyl-1H-indazol-6-yl)oxy)piperidin-1-yl)butyl)cyclohexyl)oxy)-2-methylphenyl)picolinic acid]	A (Ymin < 50%)	< 0.1 µM
Cc1c(O[C@H]2CC[C@H](CCCCN3CCC(Oc4cccc5c(C6CCC(=O)NC6=O)nn(C)c45)CC3)CC2)cccc1-c1ccc(N2CCc3cccc(C(=O)Nc4nc5ccccc5s4)c3C2)nc1C(=O)O (stereo partly drawn) [Compound 327a, 6-(8-(benzo[d]thiazol-2-ylcarbamoyl)-3,4-dihydroisoquinolin-2(1H)-yl)-3-(3-(((1s,4r)-4-(4-(4-((3-(2,6-dioxopiperidin-3-yl)-1-methyl-1H-indazol-7-yl)oxy)piperidin-1-yl)butyl)cyclohexyl)oxy)-2-methylphenyl)picolinic acid]	A (Ymin < 50%)	< 0.1 µM
Cn1nc(C2CCC(=O)NC2=O)c2ccc(N3CCN(CCC[C@H]4CC[C@H](Oc5cccc(-c6ccc(N7CCc8cccc(C(=O)Nc9nc%10ccccc%10s9)c8C7)nc6C(=O)O)c5C(F)(F)F)CC4)CC3)cc21 (stereo partly drawn) [Compound 328a, 6-(8-(benzo[d]thiazol-2-ylcarbamoyl)-3,4-dihydroisoquinolin-2(1H)-yl)-3-(3-(((1s,4r)-4-(3-(4-(3-(2,6-dioxopiperidin-3-yl)-1-methyl-1H-indazol-6-yl)piperazin-1-yl)propyl)cyclohexyl)oxy)-2-(trifluoromethyl)phenyl)picolinic acid]	A (Ymin < 50%)	< 0.1 µM
Cn1nc(C2CCC(=O)NC2=O)c2ccc(N3CCN(CCCC[C@H]4CC[C@H](Oc5cccc(-c6ccc(N7CCc8cccc(C(=O)Nc9nc%10ccccc%10s9)c8C7)nc6C(=O)O)c5)CC4)CC3)cc21 (stereo partly drawn) [Compound 329a, 6-(8-(benzo[d]thiazol-2-ylcarbamoyl)-3,4-dihydroisoquinolin-2(1H)-yl)-3-(3-(((1s,4r)-4-(4-(4-(3-(2,6-dioxopiperidin-3-yl)-1-methyl-1H-indazol-6-yl)piperazin-1-yl)butyl)cyclohexyl)oxy)phenyl)picolinic acid]	A (Ymin < 50%)	< 0.1 µM
Cn1nc(C2CCC(=O)NC2=O)c2ccc(N3CCN(CCC[C@H]4CC[C@H](Oc5cccc(-c6ccc(N7CCc8cccc(C(=O)Nc9nc%10ccccc%10s9)c8C7)nc6C(=O)O)c5)CC4)CC3)cc21 (stereo partly drawn) [Compound 330a, 6-(8-(benzo[d]thiazol-2-ylcarbamoyl)-3,4-dihydroisoquinolin-2(1H)-yl)-3-(3-(((1s,4r)-4-(3-(4-(3-(2,6-dioxopiperidin-3-yl)-1-methyl-1H-indazol-6-yl)piperazin-1-yl)propyl)cyclohexyl)oxy)phenyl)picolinic acid]	A (Ymin < 50%)	< 0.1 µM
Cc1c(O[C@H]2CC[C@H](CCCN3CCN(c4ccc5c(C6CCC(=O)NC6=O)nn(C)c5c4C)CC3)CC2)cccc1-c1ccc(N2CCc3cccc(C(=O)Nc4nc5ccccc5s4)c3C2)nc1C(=O)O (stereo partly drawn) [Compound 334a, 6-(8-(benzo[d]thiazol-2-ylcarbamoyl)-3,4-dihydroisoquinolin-2(1H)-yl)-3-(3-(((1s,4r)-4-(3-(4-(3-(2,6-dioxopiperidin-3-yl)-1,7-dimethyl-1H-indazol-6-yl)piperazin-1-yl)propyl)cyclohexyl)oxy)-2-methylphenyl)picolinic acid]	A (Ymin < 50%)	< 0.1 µM
Cc1cc2c(C3CCC(=O)NC3=O)nn(C)c2cc1N1CCN(CCC[C@H]2CC[C@H](Oc3cccc(-c4ccc(N5CCc6cccc(C(=O)Nc7nc8ccccc8s7)c6C5)nc4C(=O)O)c3C)CC2)CC1 (stereo partly drawn) [Compound 335a, 6-(8-(benzo[d]thiazol-2-ylcarbamoyl)-3,4-dihydroisoquinolin-2(1H)-yl)-3-(3-(((1s,4r)-4-(3-(4-(3-(2,6-dioxopiperidin-3-yl)-1,5-dimethyl-1H-indazol-6-yl)piperazin-1-yl)propyl)cyclohexyl)oxy)-2-methylphenyl)picolinic acid]	A (Ymin < 50%)	< 0.1 µM
